In brackets after ≈: the same amount, converted by molar mass.
Columns and labels:
L5178Y = assay: Cytotoxicity against mouse L5178Y cells by MTT assay; format: functional, cell-based
Enterococcus faecium = assay: Antibacterial activity against Enterococcus faecium ATCC 35667 by broth microdilution method; format: functional
Klebsiella pneumoniae = assay: Antibacterial activity against Klebsiella pneumoniae ATCC 13883 by broth microdilution method; format: functional
Staphylococcus aureus = assay: Antibacterial activity against Staphylococcus aureus ATCC 29213 by broth microdilution method; format: functional

CC(C)[C@H]1CC[C@@](O)(COC(=O)C2=C[C@@H]3[C@@H](C(C)C)CC[C@@](O)(CCl)[C@H]3C(=O)OC2)[C@H]2C(=O)OCC(C(=O)O)=C[C@H]12
IC50 (L5178Y): 5 µM

CC(C)[C@H]1CC[C@H](CO)[C@@H]2[C@@H]1C=C(C(=O)O)C[C@H]2O
IC50 (L5178Y): 8.7 µM

CC(C)[C@H]1CCC(CO)=C[C@@H]1/C=C(\CO)C(=O)O [GLIOCLADIC ACID]
IC50 (L5178Y): 24.4 µM

CC(C)[C@H]1CC[C@@](O)(CCl)[C@H]2C(=O)OCC(C(=O)O)=C[C@H]12 [HEPTELIDIC ACID CHLOROHYDRIN]
MIC (Enterococcus faecium): 50 µM (≈ 15.8 µg/mL) | MIC (Klebsiella pneumoniae): 100 µM (≈ 31.7 µg/mL) | MIC (Staphylococcus aureus): 50 µM (≈ 15.8 µg/mL)

Reference: ChEMBL document CHEMBL4316655, “Sesquiterpenoids from the Endophytic Fungus Rhinocladiella similis” (J Nat Prod, 2019)
